Laboratory results as given in patent EP4620956A1, “PARP1 INHIBITORS” (Zhejiang Yangli Pharmaceutical Technology Co., Ltd., priority 2022, dated 2024).
pIC50: −log10 of the molar value.

Key:
MDA-MB-436 = assay: Anti-proliferative activity (CellTiter-Glo, 7 days), MDA-MB-436; type: cell-based, human; conditions: Homo sapiens, MDA-MB-436, 168 h, read-out: MDA-MB-436 IC50
PARP3 = target: T1, PARP3 (Homo sapiens, UniProt Q9Y6F1); assay: Inhibition of PARP3 enzyme activity (chemiluminescence); type: biochemical; conditions: ratio relative to the PARP1 enzyme activity
T1 construct: purchased BPS 80503
T1 sequence (Q9Y6F1 1-533): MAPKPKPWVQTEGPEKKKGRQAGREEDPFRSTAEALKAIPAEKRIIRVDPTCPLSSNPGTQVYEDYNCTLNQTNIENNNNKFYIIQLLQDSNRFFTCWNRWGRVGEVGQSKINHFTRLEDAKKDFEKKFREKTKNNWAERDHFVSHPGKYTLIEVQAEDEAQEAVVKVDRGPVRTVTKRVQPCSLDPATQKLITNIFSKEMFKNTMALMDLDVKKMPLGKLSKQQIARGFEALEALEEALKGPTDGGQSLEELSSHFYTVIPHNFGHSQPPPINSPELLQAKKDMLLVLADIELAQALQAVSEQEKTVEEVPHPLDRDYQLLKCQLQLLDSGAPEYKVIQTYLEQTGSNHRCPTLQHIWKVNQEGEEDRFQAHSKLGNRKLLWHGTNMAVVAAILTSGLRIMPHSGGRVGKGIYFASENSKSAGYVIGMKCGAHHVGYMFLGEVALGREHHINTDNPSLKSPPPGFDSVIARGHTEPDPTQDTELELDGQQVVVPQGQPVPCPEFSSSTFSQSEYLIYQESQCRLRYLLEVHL

PARP2 = target: T2, PARP2 (Homo sapiens, UniProt Q9UGN5); assay: PARP2-DNA trapping, fluorescence polarization (FP); type: biochemical
T2 construct: purchased BPS 80502
T2 sequence (Q9UGN5 whole entry): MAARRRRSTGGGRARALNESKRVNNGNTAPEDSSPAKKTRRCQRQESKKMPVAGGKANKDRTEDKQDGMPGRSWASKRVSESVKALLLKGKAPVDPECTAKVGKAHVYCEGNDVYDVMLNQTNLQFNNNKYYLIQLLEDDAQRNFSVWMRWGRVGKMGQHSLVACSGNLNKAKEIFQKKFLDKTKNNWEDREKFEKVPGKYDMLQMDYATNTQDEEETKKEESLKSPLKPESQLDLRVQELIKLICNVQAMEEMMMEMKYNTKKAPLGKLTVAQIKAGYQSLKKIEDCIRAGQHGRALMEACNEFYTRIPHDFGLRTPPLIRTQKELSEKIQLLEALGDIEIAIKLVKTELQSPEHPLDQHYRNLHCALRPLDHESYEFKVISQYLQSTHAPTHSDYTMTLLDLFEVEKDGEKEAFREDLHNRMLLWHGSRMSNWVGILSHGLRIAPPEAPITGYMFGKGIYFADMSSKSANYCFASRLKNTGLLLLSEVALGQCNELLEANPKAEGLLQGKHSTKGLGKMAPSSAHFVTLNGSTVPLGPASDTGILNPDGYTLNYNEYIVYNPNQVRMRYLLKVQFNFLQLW

MDA-MB-231 = assay: Anti-proliferative activity (CellTiter-Glo, 7 days), MDA-MB-231; type: cell-based, human; conditions: Homo sapiens, MDA-MB-231, 168 h, read-out: MDA-MB-231 IC50

For `O=C(c1cc(Cc2n[nH]c(=O)c3ccccc23)ccc1F)N1CCN(C(=O)C2CC2)CC1` [Olaparib, olaparib], the pIC50 (MDA-MB-436) was 6.53, the “PARP3 multiple vs PARP1” value (PARP3) was 47 and the Bottom (PARP2; PARP2, 0.25 hour) was -5.4. It also gave a Hillslope (PARP2; PARP2, 0.25 hour) of 1.2, a Top (PARP2; PARP2, 0.25 hour) of 107.8 and a Bottom (PARP2; PARP2, 0.5 hour) of -2.7. It also gave a Hillslope (PARP2; PARP2, 0.5 hour) of 1.4, a Top (PARP2; PARP2, 0.5 hour) of 109.9 and a Bottom (PARP2; PARP2, 1 hour) of 2.8. It also gave a Hillslope (PARP2; PARP2, 1 hour) of 2.0, a Top (PARP2; PARP2, 1 hour) of 109.4 and a Bottom (PARP2; PARP2, 2 hour) of -2.0. It also gave a Hillslope (PARP2; PARP2, 2 hour) of 2.2, a Top (PARP2; PARP2, 2 hour) of 107.9 and a Bottom (PARP2; PARP2, 4 hour) of -1.4. The Hillslope (PARP2; PARP2, 4 hour) was 1.9, the Top (PARP2; PARP2, 4 hour) was 107.2 and the Bottom (PARP2; PARP2, 8 hour) was 1.8. The Hillslope (PARP2; PARP2, 8 hour) was 2.1, the Top (PARP2; PARP2, 8 hour) was 106.5 and the Bottom (PARP2; PARP2, 24 hour) was 0.3. The Hillslope (PARP2; PARP2, 24 hour) was 2.0, the Top (PARP2; PARP2, 24 hour) was 109.8 and the Bottom (PARP2; PARP2, 48 hour) was -1.6. The Hillslope (PARP2; PARP2, 48 hour) was 1.8, the Top (PARP2; PARP2, 48 hour) was 110.6 and the pIC50 (MDA-MB-231) was 5.02.
